In one test the test system is V. Vulnificus. Nature of the test: Biofilm inhibition screen of TABLE 1, V. vulnificus. The format is cell-based, Vibrio vulnificus. Further details: key: “X” denotes biofilm inhibition. The settings on record: 500 μM active compound, 24 hours. The protocol:
(§1) Each compound was assayed for the ability to inhibit the formation of P. aeruginosa biofilms. […] We employed a standard crystal violet reporter assay to assess for the formation of biofilms. Briefly, P. aeruginosa strain PAO1 was allowed to form biofilms in a multi-well plate in the absence or presence of our compounds. Planktonic (or free growing) bacteria were then removed, wells washed vigorously, and crystal violet added. Crystal violet stains the remaining bacteria which, following ethanol solubilization, can be quantitated by spectrophotometry (A540).
(§2) Active compounds were tested for inhibition of biofilm formation using various bacterial strains. Assays were performed as reported above, with 500 μM active compound, and 24 hours. “X” denotes biofilm inhibition.

Another test concerns H. Pacifica. Nature of the test: Biofilm inhibition screen of TABLE 1, H. pacifica. The format is cell-based, Halomonas pacifica. Set-up: key: “X” denotes biofilm inhibition. The settings on record: 500 μM active compound, 24 hours. The protocol:
as §1, §2

Test [1] concerns P. aeruginosa strain PAO1. Nature of the test: Static biofilm inhibition assay (crystal violet), PAO1. The format is cell-based, Pseudomonas aeruginosa. The settings on record: for IC50: inhibition of biofilm formation, crystal violet, 24 hours. The protocol:
as §1
(§3) An overnight culture of the bacterial strain being screened against was subcultured at an OD600 of 0.1 into the media used (listed below with strain) and then pipetted into test tubes along with a predetermined concentration of our compound of interest. Test tubes were then poured into tilted Petri dishes and 100 μL of media, strain and compound were then transferred into 96-well PVC microtiter plates. These microtiter plates were then covered, wrapped in Saran™ Wrap polyethylene film (S.C. Johnson, Racine, Wis.) and allowed to incubate at 37° C. for 24 hours. After that time, the medium was discarded and the plates were thoroughly washed with water. The remaining biofilm that was formed during incubation was stained with 100 μL of a 0.1% crystal violet solution and allowed to incubate at room temperature for 30 minutes. After 30 minutes, the crystal violet was discarded and washed thoroughly again with water. The remaining crystal violet that had stained the biofilm in the inside walls of the 96-well PVC plates was solubilized with 200 μL of 95% ethanol. The quantification of biofilm formation was accomplished by transferring 125 μL of the ethanol solution into a polystyrene microtiter dish, which was read by spectrophotometry (A540). After the background has been subtracted from each row, a percent inhibition can be calculated by dividing the amount of crystal violet in wells that contained compound by the amount of crystal violet in wells that contained bacteria only. Each concentration reported during the course of this study was repeated two to five times with each of those biofilm inhibition assays being done in 6 replicates each.
(§4) An overnight culture of the wild type strain was subcultured at an OD600 of 0.10 into LBNS along with a predetermined concentration of the small molecule to be tested for biofilm inhibition. Samples were then aliquoted (100 μL) into the wells of a 96-well PVC microtiter plate. The microtiter dishes were covered and sealed before incubation under stationary conditions at 37° C. for 24 hours. After that time, the medium was discarded and the plates thoroughly washed with water. The wells were then inoculated with a 0.1% aqueous solution of crystal violet (100 μL) and allowed to stand at ambient temperature for 30 minutes. Following another thorough washing with water the remaining stain was solubilized with 200 μL of 95% ethanol. Biofilm inhibition was quantitated by measuring the OD540 for each well by transferring 125 μL of the ethanol solution into a fresh polystyrene microtiter dish for analysis.
(§5) To examine each compound's ability to inhibit the formation of Pseudomonas aeruginosa biofilms, PAO1 and PA14 were employed as the target bacterial strains using a crystal violet reporter assay. G. A. O'Toole, R. Kolter, Mol. Microbiol. 1998, 28, 449. All compounds were initially screened at 500 μM for anti-biofilm activity.
An overnight culture of the wild type strain was subcultured at an OD600 of 0.10 into LBNS along with a predetermined concentration of the small molecule to be tested for biofilm inhibition. Samples were then aliquoted (100 μL) into the wells of a 96-well PVC microtiter plate. The microtiter dishes were covered and sealed before incubation under stationary conditions at 37° C. for 24 hours, After that time, the medium was discarded and the plates thoroughly washed with water. […]

The test system of another test is P. aeruginosa PA14. Description: Static biofilm inhibition assay (crystal violet), PA14. In kind it is cell-based, Pseudomonas aeruginosa. The settings on record: for inhibition at 500 µM: PA14, 24 h; for IC50: inhibition of biofilm formation, crystal violet, 24 hours. The protocol: as §3, §4, §5
as §4, with “for 24 hours, After that” for “for 24 hours. After that”, “violet (100 pt) and allowed” for “violet (100 μL) and allowed”

For test [2], the system named is planktonic P. aeruginosa PAO1. Description: Planktonic growth (growth curves, colony counts), PAO1. In kind it is cell-based, Pseudomonas aeruginosa. The settings on record: growth curves and/or colony counts, presence vs absence of compound, at IC50 or as stated. From the text: To answer the question of whether the compounds were antibiotics or true inhibitors of biofilm formation, we tested the ability of both compounds to inhibit growth of planktonic P. aeruginosa. Growth was quantitated by measuring optical density at 600 nm. […]

The test system of test [3] is planktonic P. aeruginosa PA14. Description: Planktonic growth (growth curves, colony counts), PA14. The format is cell-based, Pseudomonas aeruginosa. The settings on record: growth curves and/or colony counts, presence vs absence of compound, at IC50 or as stated.
In a further test the test system is P. aeruginosa. Nature of the test: Biofilm inhibition screen of TABLE 1, P. aeruginosa. Further details: key: “X” denotes biofilm inhibition. The settings on record: 500 μM active compound, 24 hours. The format is cell-based, Pseudomonas aeruginosa. The protocol:
as §1, §2

Where [4] appears, read: listed as oroidin 4, Hydrochloride.
Setting [5] is: listed as oroidin 5, Hydrochloride.
Setting [6] is: listed as oroidin (5), Hydrochloride.
The mark [7] stands for this setting: listed as sventrin 24, Hydrochloride.
The mark [8] stands for this setting: listed as sventrin (6), Hydrochloride.

The record followed here is patent US9084423B2, “Inhibition of bacterial biofilms with imidazole derivatives” (North Carolina State University, priority 2007, dated 2015).

The inhibition is how much of the control response was suppressed. In general, IC50 refers to the point on the concentration scale where inhibition reaches its midpoint.

Where a name gives a salt, the structure may show the parent alone.

Regarding `Nc1nc(Cc2c[nH]cn2)c[nH]1`, in the test on V. Vulnificus, the “V. Vulnificus biofilm inhibition” value is listed as “X”. Moreover, the “H. Pacifica biofilm inhibition” value in the test on H. Pacifica is given as “X”.
Take `Nc1nc(CCCNC(=O)c2cc(Br)c(Br)[nH]2)c[nH]1` [drawing 74]: in the test with H. Pacifica, the “H. Pacifica biofilm inhibition” value is “X”.
`NC1=N/C(=C\CCNC(=O)c2cc(Br)c(Br)[nH]2)C(=O)N1`: the “H. Pacifica biofilm inhibition” value with H. Pacifica is listed as “X”.
Turning to `Cl.Cn1c(C(=O)NCCCCc2c[nH]c(N)n2)cc(Br)c1Br` [Compound 30, 4,5-dibromo-1-methyl-pyrrole-2-carboxylic acid [4-(2-amino-1H-imidazol-4-yl)-butyl]-amide hydrochloride], the inhibition at 500 µM in test [1] (Pseudomonas aeruginosa, PAO1) was more than 95%; in the test on P. aeruginosa PA14 (Pseudomonas aeruginosa) it was more than 95%. The concentration for half-maximal inhibition (IC50) in test [1] (Pseudomonas aeruginosa, PAO1) worked out at 150 ± 17 µM; in the test with P. aeruginosa PA14 (Pseudomonas aeruginosa, PA14) it was 126 ± 17 µM. Further, in test [2], the “microbicidal effect on PAO1 planktonic growth (in words)” value is listed as “no microbicidal activity”. In addition, the “microbicidal effect on PA14 planktonic growth (in words)” value in test [3] is given as “no microbicidal activity”.
In the case of `Nc1ncc(/C=C/CNC(=O)c2cc(Br)c(Br)[nH]2)[nH]1` [oroidin, Oroidin Hydrochloride, reference compound], the inhibition at 500 µM in test [1] (Pseudomonas aeruginosa, PAO1) was more than 95%; with P. aeruginosa PA14 (Pseudomonas aeruginosa), more than 95%. Further, the 50% inhibitory concentration (IC50) came out at 190 µM in test [1] (Pseudomonas aeruginosa, PAO1) and 166 µM with P. aeruginosa PA14 (Pseudomonas aeruginosa, PA14). Besides, in test [1] (screen at 500 μM), the “inhibition of PAO1 biofilm formation (in words)” value is reported as “very potent inhibitors”. In addition, the “inhibition of PA14 biofilm formation (in words)” value in the test with P. aeruginosa PA14 (screen at 500 μM) is listed as “very potent inhibitors”. For the same molecule, the “microbicidal effect on PAO1 planktonic growth (in words)” value in test [2] (setting [4]) is “remained unchanged”; in test [2] (setting [5]) it was “did not induce microbial cell death”; in test [2] (setting [6]) it was “not due to a bactericidal effect”. The “microbicidal effect on PA14 planktonic growth (in words)” value in test [3] (setting [4]) was “remained unchanged”; in test [3] (setting [5]) it was “did not induce microbial cell death”; in test [3] (setting [6]) it was “not due to a bactericidal effect”.
As for `Nc1nc(Cc2c[nH]c3ccccc23)c[nH]1`, in the test with P. aeruginosa, the “P. aeruginosa biofilm inhibition” value is reported as “X”. Besides, the “H. Pacifica biofilm inhibition” value with H. Pacifica is given as “X”.
Take `Nc1nc(CCCNC(=O)c2cc(Br)c[nH]2)c[nH]1` [drawing 73]: in the test with P. aeruginosa, the “P. aeruginosa biofilm inhibition” value is on record as “X”. Further, the “H. Pacifica biofilm inhibition” value with H. Pacifica is reported as “X”.
For `Cl.Cn1c(C(=O)NCCc2c[nH]c(N)n2)cc(Br)c1Br` [Compound 27, 4,5-dibromo-1-methyl-pyrrole-2-carboxylic acid [2-(2-amino-1H-imidazol-4-yl)-ethyl]-amide hydrochloride], the inhibition at 500 µM is more than 95% in test [1] (Pseudomonas aeruginosa, PAO1) and more than 95% with P. aeruginosa PA14 (Pseudomonas aeruginosa). Further, the 50% inhibitory concentration (IC50) in test [1] (Pseudomonas aeruginosa, PAO1) was 165 ± 23 µM; in the test with P. aeruginosa PA14 (Pseudomonas aeruginosa, PA14), 224 ± 22 µM. Further, in test [2], the “microbicidal effect on PAO1 planktonic growth (in words)” value is recorded as “no microbicidal activity”. The “microbicidal effect on PA14 planktonic growth (in words)” value in test [3] is “no microbicidal activity”.
On to `NC[C@@H]1Cc2nc(N)[nH]c2C[C@@H]1CN`, for which the “P. aeruginosa biofilm inhibition” value in the test with P. aeruginosa is listed as “X”.
Regarding `NC[C@H]1Cc2nc(N)[nH]c2C[C@@H]1CN`, the “P. aeruginosa biofilm inhibition” value in the test on P. aeruginosa is given as “X”. Moreover, the “V. Vulnificus biofilm inhibition” value with V. Vulnificus is on record as “X”. In addition, the “H. Pacifica biofilm inhibition” value in the test on H. Pacifica is “X”.
Consider `Cl.Cn1c(C(=O)NCCc2c[nH]cn2)cc(Br)c1Br` [Compound 40, 4,5-dibromo-1-methyl-pyrrole-2-carboxylic acid [2-(1H-imidazol-4-yl)-ethyl]-amide hydrochloride], for which the inhibition at 500 µM turned out to be 73% in test [1] (Pseudomonas aeruginosa, PAO1) and 82% in the test on P. aeruginosa PA14 (Pseudomonas aeruginosa). The IC50 stood at 277 ± 35 µM in test [1] (Pseudomonas aeruginosa, PAO1) and 203 ± 25 µM in the test on P. aeruginosa PA14 (Pseudomonas aeruginosa, PA14). The “microbicidal effect on PAO1 planktonic growth (in words)” value in test [2] was “not inhibiting biofilm development through microbicidal activity”. Besides, the “microbicidal effect on PA14 planktonic growth (in words)” value in test [3] is reported as “not inhibiting biofilm development through microbicidal activity”.
On to `Nc1ncc2n1CCC2`, for which, in the test with V. Vulnificus, the “V. Vulnificus biofilm inhibition” value is “X”.
For the molecule `Cn1c(C(=O)NC/C=C/c2cnc(N)[nH]2)cc(Br)c1Br` [sventrin, Sventrin Hydrochloride, reference compound], the values for the IC50 (in test [1]; in the test on P. aeruginosa PA14) were 75 ± 5 µM and 115 ± 3 µM, respectively. Besides, the “microbicidal effect on PAO1 planktonic growth (in words)” value in test [2] (setting [7]) is recorded as “did not induce microbial cell death”; in test [2] (setting [8]) it was “not due to a bactericidal effect”. The “microbicidal effect on PA14 planktonic growth (in words)” value in test [3] (setting [7]) was “did not induce microbial cell death”; in test [3] (setting [8]), “not due to a bactericidal effect”.
`Nc1nc(/C=C/CNC(=O)c2cc(Br)c(Br)[nH]2)c[nH]1`: the “H. Pacifica biofilm inhibition” value in the test with H. Pacifica is “X”.
